These results are taken from US20240383904A1, “HETEROCYCLIC COMPOUNDS” (Hoffmann-La Roche Inc., priority 2021, published 2024).

In the assay the target is T1, MAGL (Homo sapiens, UniProt Q99685).
T1 sequence (Q99685 1-303): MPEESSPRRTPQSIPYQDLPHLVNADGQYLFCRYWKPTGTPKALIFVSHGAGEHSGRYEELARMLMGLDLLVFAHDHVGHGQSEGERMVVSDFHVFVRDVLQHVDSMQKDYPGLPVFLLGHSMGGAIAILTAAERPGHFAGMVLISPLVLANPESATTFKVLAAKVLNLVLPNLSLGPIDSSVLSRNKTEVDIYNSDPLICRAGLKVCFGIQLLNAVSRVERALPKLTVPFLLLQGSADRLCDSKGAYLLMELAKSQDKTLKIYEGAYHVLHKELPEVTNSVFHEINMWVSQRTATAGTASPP
Put plainly: 2-AG assay: MAGL inhibitory activity by hydrolysis of 2-arachidonoylglycerol to arachidonic acid, followed by mass spectrometry. The assay is classed as biochemical. Conditions: 15 min preincubation, 30 min reaction at RT, 8 μM 2-arachidonoylglycerol.

The structures appear in SMILES notation.

For orientation: IC50 means the concentration at which inhibition is half-maximal. With `O=C1CCC2(CN(C(=O)N3CC4(CN(Cc5snnc5C5CC5)C4)C3)C2)N1` [Example 345, 2-[6-[(4-cyclopropylthiadiazol-5-yl)methyl]-2,6-diazaspiro[3.3]heptane-2-carbonyl]-2,5-diazaspiro[3.4]octan-6-one], the midpoint of inhibition, the IC50, lay at 3330 nM. `Cc1cc(C(F)F)n(CC2CC3(C2)CN(C(=O)N2CC4(CCC(=O)N4)C2)C3)n1` [Example 346, 2-[6-[[5-(difluoromethyl)-3-methyl-pyrazol-1-yl]methyl]-2-azaspiro[3.3]heptane-2-carbonyl]-2,5-diazaspiro[3.4]octan-6-one] displayed an IC50 of 29.1 nM.

For the molecule `Cc1cc(C(F)F)nn1CC1CC2(C1)CN(C(=O)N1CC3(CCC(=O)N3)C1)C2` [Example 347, 2-[6-[[3-(difluoromethyl)-5-methyl-pyrazol-1-yl]methyl]-2-azaspiro[3.3]heptane-2-carbonyl]-2,5-diazaspiro[3.4]octan-6-one], the IC50 is 8.19 nM. The result for `O=C1CCC2(CN(C(=O)N3CC4(CCN(Cc5ncc(C(F)F)s5)CC4)C3)C2)N1` [Example 348, 2-[7-[[5-(difluoromethyl)thiazol-2-yl]methyl]-2,7-diazaspiro[3.5]nonane-2-carbonyl]-2,5-diazaspiro[3.4]octan-6-one] reads 90.9 nM; that for `O=C1CCC2(CN(C(=O)N3CC4(CC(Cc5nsc(C(F)(F)F)n5)C4)C3)C2)N1` [Example 349, 2-[6-[[5-(trifluoromethyl)-1,2,4-thiadiazol-3-yl]methyl]-2-azaspiro[3.3]heptane-2-carbonyl]-2,5-diazaspiro[3.4]octan-6-one], 23 nM. Regarding `O=C1CCC2(CN(C(=O)N3CC4(CCN(Cc5cc(C(F)(F)F)[nH]n5)CC4)C3)C2)N1` [Example 350, 2-[7-[[5-(trifluoromethyl)-1H-pyrazol-3-yl]methyl]-2,7-diazaspiro[3.5]nonane-2-carbonyl]-2,5-diazaspiro[3.4]octan-6-one], the half-inhibitory concentration (IC50) was determined as 165 nM. For `O=C1NC2(CO1)CN(C(=O)N1CC3(CC(Cc4nc(C(F)(F)F)cs4)C3)C1)C2` [Example 351, 2-[6-[[4-(trifluoromethyl)thiazol-2-yl]methyl]-2-azaspiro[3.3]heptane-2-carbonyl]-7-oxa-2,5-diazaspiro[3.4]octan-6-one] the value was 0.37 nM; for `Cn1ncc(CC2CC3(C2)CN(C(=O)N2CC4(COC(=O)N4)C2)C3)c1C(F)(F)F` [Example 352, 2-[6-[[1-methyl-5-(trifluoromethyl)pyrazol-4-yl]methyl]-2-azaspiro[3.3]heptane-2-carbonyl]-7-oxa-2,5-diazaspiro[3.4]octan-6-one], 0.15 nM; for `N#Cc1ccc(CC2CC3(C2)CN(C(=O)N2CC4(COC(=O)N4)C2)C3)cc1C(F)(F)F` [Example 353], 0.1 nM.

With `O=C1NC2(CO1)CN(C(=O)N1CC3(CC(Cc4ccc(C(F)(F)F)cn4)C3)C1)C2` [Example 354, 2-[6-[[5-(trifluoromethyl)-2-pyridyl]methyl]-2-azaspiro[3.3]heptane-2-carbonyl]-7-oxa-2,5-diazaspiro[3.4]octan-6-one], the concentration for half-maximal inhibition (IC50) stood at 0.28 nM. For `O=C1NC2(CO1)CN(C(=O)N1CC3(CC(Cc4ccc(OC(F)(F)F)nc4)C3)C1)C2` [Example 355, 2-[6-[[6-(trifluoromethoxy)-3-pyridyl]methyl]-2-azaspiro[3.3]heptane-2-carbonyl]-7-oxa-2,5-diazaspiro[3.4]octan-6-one] the value was 0.19 nM. As to `N=[S@](=O)(c1cccc(CC2CC3(C2)CN(C(=O)N2CC4(COC(=O)N4)C2)C3)c1)C(F)(F)F` [Example 356, 2-[6-[3-(trifluoromethylsulfoni-midoyl)benzyl]-2-azaspiro[3.3]heptane-2-carbonyl]-7-oxa-2,5-diazaspiro[3.4]octan-6-one], the IC50 turned out to be 0.2 nM. The result for `N=[S@@](=O)(c1cccc(CC2CC3(C2)CN(C(=O)N2CC4(COC(=O)N4)C2)C3)c1)C(F)(F)F` [Example 357, 2-[6-[3-(trifluoromethylsulfoni-midoyl)benzyl]-2-azaspiro[3.3]heptane-2-carbonyl]-7-oxa-2,5-diazaspiro[3.4]octan-6-one] reads 0.15 nM; that for `N=[S@@](=O)(c1ccc(CC2CC3(C2)CN(C(=O)N2CC4(COC(=O)N4)C2)C3)cc1)C(F)(F)F` [Example 358, 2-[6-[4-(trifluoromethylsulfoni-midoyl)benzyl]-2-azaspiro[3.3]heptane-2-carbonyl]-7-oxa-2,5-diazaspiro[3.4]octan-6-one], 0.26 nM; that for `N=[S@](=O)(c1ccc(CC2CC3(C2)CN(C(=O)N2CC4(COC(=O)N4)C2)C3)cc1)C(F)(F)F` [Example 359], 0.32 nM. For `O=C1CCC2(CN(C(=O)N3CC4(CC(Cc5cccc(S(=O)(=O)C(F)(F)F)c5)C4)C3)C2)N1` [Example 360, 2-[6-(3-triflylbenzyl)-2-azaspiro[3.3]heptane-2-carbonyl]-2,5-diazaspiro[3.4]octan-6-one] the value was 0.2 nM; for `O=C1CCC2(CN(C(=O)N3CC4(CN(Cc5ccc(C(F)(F)F)cc5F)C4)C3)C2)N1` [Example 361, 2-[6-[2-fluoro-4-(trifluoromethyl)benzyl]-2,6-diazaspiro[3.3]heptane-2-carbonyl]-2,5-diazaspiro[3.4]octan-6-one], 5.8 nM; for `O=C1COCC2(CN(C(=O)N3CC4(CC(Cn5ncc(C(F)(F)F)n5)C4)C3)C2)N1` [Example 362, 2-[6-[[4-(trifluoromethyl)triazol-2-yl]methyl]-2-azaspiro[3.3]heptane-2-carbonyl]-8-oxa-2,5-diazaspiro[3.5]nonan-6-one], 78.2 nM. The result for `O=C1COCC2(CN(C(=O)N3CC4(CC(Cc5nc(C(F)(F)F)ns5)C4)C3)C2)N1` [Example 363, 2-[6-[[3-(trifluoromethyl)-1,2,4-thiadiazol-5-yl]methyl]-2-azaspiro[3.3]heptane-2-carbonyl]-8-oxa-2,5-diazaspiro[3.5]nonan-6-one] reads 54.9 nM. `Cc1cc(C(F)F)n(CC2CC3(C2)CN(C(=O)N2CC4(COCC(=O)N4)C2)C3)n1` [Example 364, 2-[6-[[5-(difluoromethyl)-3-methyl-pyrazol-1-yl]methyl]-2-azaspiro[3.3]heptane-2-carbonyl]-8-oxa-2,5-diazaspiro[3.5]nonan-6-one] registered an IC50 of 27.2 nM. The result for `O=C1COCC2(CN(C(=O)N3CC4(CC(Cc5cnn(C(F)(F)F)c5)C4)C3)C2)N1` [Example 365, 2-[6-[[1-(trifluoromethyl)pyrazol-4-yl]methyl]-2-azaspiro[3.3]heptane-2-carbonyl]-8-oxa-2,5-diazaspiro[3.5]nonan-6-one] reads 41 nM; that for `Cn1ncc(C(F)(F)F)c1CC1CC2(C1)CN(C(=O)N1CC3(COCC(=O)N3)C1)C2` [Example 366, 2-[6-[[2-methyl-4-(trifluoromethyl)pyrazol-3-yl]methyl]-2-azaspiro[3.3]heptane-2-carbonyl]-8-oxa-2,5-diazaspiro[3.5]nonan-6-one], 22.4 nM. For `Cn1nc(CC2CC3(C2)CN(C(=O)N2CC4(COCC(=O)N4)C2)C3)cc1C(F)(F)F` [Example 367, 2-[6-[[1-methyl-5-(trifluoromethyl)pyrazol-3-yl]methyl]-2-azaspiro[3.3]heptane-2-carbonyl]-8-oxa-2,5-diazaspiro[3.5]nonan-6-one] the value was 2.88 nM. For `Cn1ncc(CC2CC3(C2)CN(C(=O)N2CC4(COCC(=O)N4)C2)C3)c1C(F)(F)F` [Example 368, 2-[6-[[1-methyl-5-(trifluoromethyl)pyrazol-4-yl]methyl]-2-azaspiro[3.3]heptane-2-carbonyl]-8-oxa-2,5-diazaspiro[3.5]nonan-6-one] the value was 4.11 nM; for `O=C1COCC2(CN(C(=O)N3CC4(CC(Cc5nc(C(F)(F)F)cs5)C4)C3)C2)N1` [Example 369], 23.1 nM. Take `Cn1cc(CC2CC3(C2)CN(C(=O)N2CC4(COCC(=O)N4)C2)C3)c(C(F)(F)F)n1` [Example 370, 2-[6-[[1-methyl-3-(trifluoromethyl)pyrazol-4-yl]methyl]-2-azaspiro[3.3]heptane-2-carbonyl]-8-oxa-2,5-diazaspiro[3.5]nonan-6-one]: the IC50 is 11.8 nM.

In the case of `O=C1COCC2(CN(C(=O)N3CC4(CC(Cc5ncc(F)cc5F)C4)C3)C2)N1` [Example 371, 2-[6-[(3,5-difluoro-2-pyridyl)methyl]-2-azaspiro[3.3]heptane-2-carbonyl]-8-oxa-2,5-diazaspiro[3.5]nonan-6-one], inhibition was half-maximal at 9.04 nM (IC50). For `O=C1COCC2(CN(C(=O)N3CC4(CN(Cc5ccc(C(F)(F)F)cc5F)C4)C3)C2)N1` [Example 372, 2-[6-[2-fluoro-4-(trifluoromethyl)benzyl]-2,6-diazaspiro[3.3]heptane-2-carbonyl]-8-oxa-2,5-diazaspiro[3.5]nonan-6-one] the value was 15.6 nM. With `O=C1COCC2(CN(C(=O)N3CC4(CN(Cc5ccc(S(=O)(=O)C(F)(F)F)cc5F)C4)C3)C2)N1` [Example 373, 2-[6-(2-fluoro-4-triflyl-benzyl)-2,6-diazaspiro[3.3]heptane-2-carbonyl]-8-oxa-2,5-diazaspiro[3.5]nonan-6-one], the IC50 was 59.2 nM. For `CC(C)(C)c1coc(CN2CC3(C2)CN(C(=O)N2CC4(CCC(=O)N4)C2)C3)n1` [Example 374, 2-[6-[(4-tert-butyloxazol-2-yl)methyl]-2,6-diazaspiro[3.3]heptane-2-carbonyl]-2,5-diazaspiro[3.4]octan-6-one] the value was 88.7 nM; for `O=C1CCC2(CN(C(=O)N3CC4(CN(Cc5ccc[nH]c5=O)C4)C3)C2)N1` [Example 375, 2-[6-[(2-keto-1H-pyridin-3-yl)methyl]-2,6-diazaspiro[3.3]heptane-2-carbonyl]-2,5-diazaspiro[3.4]octna-6-one], 1850 nM.
